Reference: patent publication US9834541B2, “2-aminopyridine compounds” (Merck Patent GmbH, priority 2012, dated 2017)

Columns and labels:
Wnt pathway = test: Cellular assay for Wnt pathway activity, LS174T-shl-fLuc clone 5 (LS174T-L5) luciferase reporter assay; format: cell-based; settings: Homo sapiens; LS174T TCF luciferase reporter cells, 24 hours incubation
Source text: 1. Cellular Assay for Wnt Pathway Activity LS174T-shl-fLuc Clone 5 (LS174T-L5) Reporter Assay Principle:
This assay is based on an in-vitro luciferase activity readout. The human colon cancer cell line, LS174T was transduced with a lentivirus encoding a short half-life luciferase (with a destabilised PEST sequence construct; construct F1756): 16×TCF/LEF transcription sites—short half life firefly luciferase on a basal pTA promoter—puromycin resistance gene on an EF-1-α promoter). This construct was made using the lentiviral base vector: pCDF1-MCS2-EF1-Puro from System Biosciences (cat. # CD110B-1). The luciferase has a T1/2 of about 60 minutes.
Stable luciferase-expressing clones were selected, using 1 μg/mL puromycin selection and the clones were bulked up.
Compounds that inhibit the Wnt pathway are predicted to inhibit the induction of luciferase transcription by TCF; this will result in reduced luciferase protein production and luciferase signal readout.
Compounds were tested for their Wnt pathway inhibitory activities using the described firefly luciferase reporter cell based assay. An LS174T luciferase reporter cell line was used which contained a T-Cell Factor (TCF) dependent gene promoter firefly luciferase construct.
Compounds, in concentrations from 30 μM to 1 nM, were incubated for 24 hours on the cells. Luciferase activities were determined using the Steady Glo Luciferase Assay System (Promega) and the TOPCOUNT microplate reader (Perkin Elmer). For analysis, the obtained data were normalized against the untreated vehicle control and fitted for determination of the IC50 values using the Excel Fit application of the Excel Software (Microsoft).

[1] = CLint (intrinsic clearance) assay, liver microsomal incubation; format: in vitro ADME, human; settings: liver microsomes, pH 7.4; human hepatic microsomes, 0.5 mg/mL protein, class symbols
Procedure: Also shown is the human hepatic microsomal intrinsic clearance (CLint), whereby the following classification is used:
2. CLint (Intrinsic Clearance) Assay
A Tecan Genesis workstation (RWS ASY 150/8) was used to perform the microsomal incubations. Analysis was carried out using a Waters ACQUITY UPLC system coupled to an ABSciex API3000 mass spectrometer. Data analysis was performed using Assay Explorer (Symyx).
Column: Acquity UPLC BEH C18, 2.1×50 mm, 1.7 um (Waters)
Mobile phases: • A=0.1% formic acid in water • B=acetonitrile
Column temperature: 50° C.
0.1 M potassium phosphate buffer pH 7.4 containing 1 mM MgCl2
15 mM NADPH in phosphate buffer
5.0 mg protein/mL liver microsomes in phosphate buffer
Each experiment consists of 12 test and 2 reference compounds. The reference compounds are incubated as a cocktail.
Dilution of test compounds was done in 2 steps from a 10 mM DMSO stock solution. First 4 μL stock solution was added to 196 μL of 20% DMSO in potassium phosphate buffer pH 7.4. In a second step 10 μL of the first dilution were added to 1890 μL potassium phosphate buffer and 100 μL internal standard solution to a final concentration of […].
100 μL of the final compound dilution were aliquoted into a 96 deep well plate. 12.5 μL liver microsomes were added to each well (0.5 mg/mL final protein concentration) and the samples preincubated for 5 min at 37° C. and 800 rpm agitation.
After the preincubation, 250 μL cold acetonitrile were added to the 0 min samples to prevent a reaction. Following this, 12.5 μL NADPH solution were added to all wells to start the incubation, with the exception of the 0 min and 30 min controls without cofactor, where the NADPH was substituted for phosphate buffer.
The incubations were stopped after 5, 10, 20 and 30 min by adding 250 μL cold acetonitrile to the individual wells.
The quenched samples were then centrifuged at 4000 g for 1 h at 4° C. 100 μL of the supernatant were transferred into 96 well plates for analysis.
The metabolic stability of each compound was determined by measurement of the change in LC-MS/MS peak area over time. Assay Explorer software was used to automatically calculate the slope k of the decline. The intrinsic clearance (CLint) of each compound was then calculated according to the formula: CLint(μL/min/mg protein)=k1000/protein concentration.

SMILES	IC50 (Wnt pathway) [nM]	microsomal CLint at 0.8 μM [1] [µL/min/mg]
Cn1cc(-c2ccc(-c3cnc(N)c(Cl)c3N3CCC4(CC3)CNC(=O)O4)cc2)cn1 [Compound 10, 8-{2-Amino-3-chloro-5-[4-(1-methyl-1H-pyrazol-4-yl)-phenyl]-pyridin-4-yl}-1-oxa-3,8-diaza-spiro[4.5] decan-2-one]	36	10 to 50
CC(C)n1ncc2ccc(-c3cnc(N)c(Cl)c3N3CCC4(CCNC4=O)CC3)cc21 [Compound 73, 8-[2-Amino-3-chloro-5-(1-isopropyl-1H-indazol-6-yl)-pyridin-4-yl]-2,8-diaza-spiro[4.5] decan-1-one]	54	100 to 150
Nc1ncc(-c2ccc3c(c2)CCS3(=O)=O)c(N2CCC3(CCNC3=O)CC2)c1Cl [Compound 62, 8-[2-Amino-3-chloro-5-(1,1-dioxo-2,3-dihydro-1H-1I6-benzo[b]thiophen-5-yl)-pyridin-4-yl]-2,8-diaza-spiro[4.5] decan-1-one]	450	10 to 50
Cn1cc(-c2ccc(-c3cnc(N)c(Cl)c3N3CCC4(CC3)C(=O)Nc3ccccc34)cc2)cn1 [Compound 11, 1′-(2-Amino-3-chloro-5-(4-(1-methyl-1H-pyrazol-4-yl)phenyl)pyridin-4-yl)spiro[indoline-3,4′-piperidin]-2-one]	3	10 to 50
Nc1ncc(-c2ccc(-c3cnn(CCO)c3)cc2)c(N2CCC3(CC2)NC(=O)NC3=O)c1Cl [Compound 6, 8-(2-Amino-3-chloro-5-{4-[1-(2-hydroxy-ethyl)-1H-pyrazol-4-yl]-phenyl}-pyridin-4-yl)-1,3,8-triaza-spiro[4.5] decane-2,4-dione]	390	10 to 50
Cn1ncc2cc(-c3cnc(N)c(Cl)c3N3CCC4(CC3)CNC(=O)O4)ccc21 [Compound 21, 8-[2-Amino-3-chloro-5-(1-methyl-1H-indazol-5-yl)-pyridin-4-yl]-1-oxa-3,8-diaza-spiro[4.5] decan-2-one]	110	10 to 50

The remaining lines, values ahead:

IC50 (Wnt pathway) [nM]	microsomal CLint at 0.8 μM [1] [µL/min/mg]	SMILES
103	< 10	CN1c2ccc(-c3cnc(N)c(F)c3N3CCC4(CC3)CNC(=O)O4)cc2CS1(=O)=O [Compound 60, 8-[2-Amino-3-fluoro-5-(1-methyl-2,2-dioxo-2,3-dihydro-1H-2l6-benzo[c]isothiazol-5-yl)-pyridin-4-yl]-1-oxa-3,8-diaza-spiro[4.5]decan-2-one]
60.1	10 to 50	CN1c2ccc(-c3cnc(N)c(F)c3N3CCC4(CCNC4=O)CC3)cc2CS1(=O)=O [Compound 61, 8-[2-Amino-3-fluoro-5-(1-methyl-2,2-dioxo-2,3-dihydro-1H-2l6-benzo[c]isothiazol-5-yl)-pyridin-4-yl]-2,8-diaza-spiro[4.5]decan-1-one]
38	< 10	CN1c2ccc(-c3cnc(N)c(Cl)c3N3CCC4(CC3)CNC(=O)O4)cc2CS1(=O)=O [Compound 4, 8-[2-Amino-3-chloro-5-(1-methyl-2,2-dioxo-2,3-dihydro-1H-2I6-benzo[c]isothiazol-5-yl)-pyridin-4-yl]-1-oxa-3,8-diaza-spiro[4.5] decan-2-one]
14	10 to 50	CN1c2ccc(-c3cnc(N)c(Cl)c3N3CC[C@H](C#N)[C@@H](O)C3)cc2CS1(=O)=O [Compound 65, (3R,4R)-2′-Amino-3′-chloro-3-hydroxy-5′-(1-methyl-2,2-dioxo-2,3-dihydro-1H-2I6-benzo[c]isothiazol-5-yl)-3,4,5,6-tetrahydro-2H-[1,4′] bipyridinyl-4-carbonitrile]
34	100 to 150	N#CC1CCN(c2c(-c3ccc(N4CCOCC4)cc3)cnc(N)c2Cl)CC1 [Compound 27, 1-(2-Amino-3-chloro-5-(4-morpholinophenyl)pyridin-4-yl)piperidine-4-carbonitrile]
